In US9403792B2, “Methods of using pyruvate kinase activators” (AGIOS PHARMACEUTICALS, INC, priority 2011, dated 2016):

Assays:
Assay type in all cases: biochemical
PKR wt = PKR wt (Homo sapiens, UniProt P30613); test: PKR WT Single Point Percent Activation Assay; conditions: compound at 1 μM
Method: PKR WT Single Point Percent Activation Assay
(§1) A compound described herein was diluted with DMSO and tested at 1 μM concentration. The enzyme was diluted in 1× Buffer: (100 mM KCl, 50 mM Tris 7.5, 5 mM MgCl2, 1 mM DTT, 0.03% BSA). 2 μL of compound solution was first added into wells, and then 180 μL of enzyme solution was added. Assays were assembled except for ADP, and plates were stored for 60 minutes at RT. 20 μL ADP was added to start the assay and assay output was evaluated using OD340 at SpectraMax. The assay was run at room temperature.
Final Concentration: PKR wt (100 ng/well), Tris pH 7.5 (50 mM), KCl (100 mM), MgCl2 (5 mM), ADP (0.48 mM), PEP (0.15 mM), NADH (180 μM), LDH (0.5 units, Sigma 59023), DTT (1 mM) and BSA (0.03%).

PKR R510Q [1] = molecular target: T1, PKR R510Q (Homo sapiens, UniProt P30613, R510Q); test: PKR R510Q Single Point Percent Activation Assay; conditions: compound at 1 μM; for activation at 1 µM: read-out: % Act. R510Q
Method: PKR R510Q Single Point Percent Activation Assay
as §1
Final Concentration: PKR R510Q (40 ng/well), Tris pH 7.5 (50 mM), KCl (100 mM), MgCl2 (5 mM), ADP (0.2 mM), PEP (0.11 mM), NADH (180 μM), LDH (0.5 units, Sigma 59023), DTT (1 mM) and BSA (0.03%).

PKR T384W [2] = molecular target: T2, PKR T384W (Homo sapiens, UniProt P30613, T384W); test: PKR T384W Single Point Percent Activation Assay; conditions: compound at 1 μM; for activation at 1 µM: read-out: % Act. T384W
Method: PKR T384W Single Point Percent Activation Assay
as §1, with “180 μL enzyme solution” for “180 μL of enzyme solution”
Final Concentration: PKR T384W soluble (300 ng/well), Tris pH 7.5 (50 mM), KCl (100 mM), MgCl2 (5 mM), ADP (0.08 mM), PEP (0.23 mM), NADH (180 μM), LDH (0.5 units, Sigma 59023), DTT (1 mM) and BSA (0.03%).

PKR R532W [3] = molecular target: T3, PKR R532W (Homo sapiens, UniProt P30613, R532W); test: PKR R532W Single Point Percent Activation Assay; conditions: compound at 1 μM; for activation at 1 µM: read-out: % Act. R532W
Method: PKR R532W Single Point Percent Activation Assay
as §1
Final Concentration: PKR R532W (100 ng/well), Tris pH 7.5 (50 mM), KCl (100 mM), MgCl2 (5 mM), ADP (0.36 mM), PEP (0.1 mM), NADH (180 μM), LDH (0.5 units, Sigma 59023), DTT (1 mM) and BSA (0.03%).

PKR R532W [4] = molecular target: T3, PKR R532W; test: PKR Mutant Assay (AC50), PKR R532W
Method: (§2) • PKR or PKR mutant enzyme solution was diluted in assay buffer. 2 μL of test compound was added into wells first, and then 180 μL reaction mix was added. • Reactions mixture with test compound was assembled except for ADP, and plates were stored for 60 minutes at room temperature. • 20 uL ADP was added to start reaction at room temperature and reaction progress was measured as changes in absorbance at 340 nm wavelength at room temperature. Test Compound Preparation: • Test compound stock was made at 100× concentration in 100% DMSO (10 mM) • 1 to 3 dilutions were made for 11 points (i.e. 50 μl of first concentration added to 100 μl 100% DMSO to yield 3.33 mM, 50 μl of this added to 100 μl DMSO to yield 1.11 mM, and so forth) • 1 to 100 dilution into assay (2 μl in 200 μl) yielded starting concentration of 100 μM, decreasing 3 fold for 11 points. Assay Buffer: 100 mM KCl, 50 mM Tris 7.5, 5 mM MgCl2, 1 mM DTT, 0.03% BSA Reaction Mixture: PKR mutant enzyme: 80-400 ng/well; ADP: 0.22-1.65 mM; PEP: 0.1-0.5 mM; NADH: 180 uM; LDH: 0.5 units (Sigma#59023); DTT: 1 mM; BSA: 0.03%.

wild type PKR = wild type PKR (Homo sapiens, UniProt P30613); test: PKR Mutant Assay (AC50), wild type PKR; conditions: read-out: PKR WT AC50
Method: as §2

PKR G364D = PKR G364D (Homo sapiens, UniProt P30613, G364D); test: PKR Mutant Assay (AC50), PKR G364D
Method: as §2

PKR R479H = PKR R479H (Homo sapiens, UniProt P30613, R479H); test: PKR Mutant Assay (AC50), PKR R479H
Method: as §2

PKR R510Q [5] = molecular target: T1, PKR R510Q; test: PKR Mutant Assay (AC50), PKR R510Q
Method: as §2

PKR G332S = PKR G332S (Homo sapiens, UniProt P30613, G332S); test: PKR Mutant Assay (AC50), PKR G332S
Method: as §2

PKR T384W [6] = molecular target: T2, PKR T384W; test: PKR Mutant Assay (AC50), PKR T384W
Method: as §2

T3 sequence (P30613 whole entry R532W): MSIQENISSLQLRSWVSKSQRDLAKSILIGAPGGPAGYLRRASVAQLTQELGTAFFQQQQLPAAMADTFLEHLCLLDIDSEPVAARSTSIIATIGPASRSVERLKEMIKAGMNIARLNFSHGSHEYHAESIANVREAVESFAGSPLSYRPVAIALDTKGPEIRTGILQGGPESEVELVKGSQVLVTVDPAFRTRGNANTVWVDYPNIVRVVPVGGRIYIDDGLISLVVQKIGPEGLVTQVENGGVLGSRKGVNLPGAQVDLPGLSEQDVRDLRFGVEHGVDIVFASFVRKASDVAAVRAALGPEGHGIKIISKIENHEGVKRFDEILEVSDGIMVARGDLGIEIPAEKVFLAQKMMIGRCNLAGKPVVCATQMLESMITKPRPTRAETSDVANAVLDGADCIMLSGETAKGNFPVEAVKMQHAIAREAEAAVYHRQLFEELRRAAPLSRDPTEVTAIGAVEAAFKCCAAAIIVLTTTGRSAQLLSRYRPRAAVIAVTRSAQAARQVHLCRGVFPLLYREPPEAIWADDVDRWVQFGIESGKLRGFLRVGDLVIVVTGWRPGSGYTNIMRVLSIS
Chain of PKR G332S (P30613 whole entry G332S): as the sequence (P30613 whole entry R532W) above, with G332S, W532R counted along it
Chain of PKR R479H (P30613 whole entry R479H): as the sequence (P30613 whole entry R532W) above, with R479H, W532R counted along it
T2 sequence (P30613 whole entry T384W): as the sequence (P30613 whole entry R532W) above, with T384W, W532R counted along it
Chain of PKR G364D (P30613 whole entry G364D): as the sequence (P30613 whole entry R532W) above, with G364D, W532R counted along it
Chain of PKR wt (P30613 whole entry): as the sequence (P30613 whole entry R532W) above, with W532R counted along it
Chain of wild type PKR (P30613 whole entry): as the sequence (P30613 whole entry R532W) above, with W532R counted along it
T1 sequence (P30613 whole entry R510Q): as the sequence (P30613 whole entry R532W) above, with R510Q, W532R counted along it

| Compound | activation at 1 µM (PKR wt) [%] | activation at 1 µM (PKR R510Q [1]) [%] | activation at 1 µM (PKR T384W [2]) [%] | activation at 1 µM (PKR R532W [3]) [%] | % Act. R532W (PKR R532W [3]) | AC50 (PKR R532W [4]) [nM] | AC50 (wild type PKR) [nM] | AC50 (PKR G364D) [nM] | AC50 (PKR R479H) [nM] | AC50 (PKR R510Q [5]) [nM] | AC50 (PKR G332S) [nM] | AC50 (PKR T384W [6]) [nM] | % Act. WT (PKR wt) | % Act. R510Q (PKR R510Q [1]) | % Act. T384W (PKR T384W [2]) |
| --- | --- | --- | --- | --- | --- | --- | --- | --- | --- | --- | --- | --- | --- | --- | --- |
| COc1cc(F)c(S(=O)(=O)N2CCN(S(=O)(=O)c3cccc(N)c3)CC2)c(F)c1 | 101 to 500 | 101 to 500 | 101 to 500 | 101 to 500 |  |  |  |  |  |  |  |  |  |  |  |
| COc1cc(F)c(S(=O)(=O)N2CCCN(S(=O)(=O)c3cccc(N)c3)CC2)c(F)c1 | 101 to 500 | 101 to 500 | 101 to 500 | 101 to 500 |  |  |  |  |  |  |  |  |  |  |  |
| Nc1cccc(S(=O)(=O)N2CCCN(S(=O)(=O)c3ccc4c(c3)OCCO4)CC2)c1 [drawing 23] | 101 to 500 | 101 to 500 | 101 to 500 |  | B (a % activation at 1 μM of from 101 to 500) |  |  |  |  |  |  |  |  |  |  |
| Nc1cccc(S(=O)(=O)N2CCN(S(=O)(=O)c3c(F)cccc3F)CC2)c1 | 101 to 500 | 101 to 500 | 101 to 500 | 101 to 500 |  |  |  |  |  |  |  |  |  |  |  |
| Cn1c2cc([S+](C)[O-])sc2c2cnn(Cc3ccccc3F)c(=O)c21 (centres unmarked) | 101 to 500 | 101 to 500 | 101 to 500 | 101 to 500 |  | > 500 | 101 to 500 | 101 to 500 | 101 to 500 | 101 to 500 | > 500 | > 500 |  |  |  |
| Cn1c2cc([S+](C)[O-])sc2c2cnn(Cc3cccc(O)c3)c(=O)c21 (centres unmarked) | 101 to 500 | 101 to 500 | 101 to 500 | 101 to 500 |  | < 100 | < 100 | < 100 | < 100 | < 100 | < 100 | < 100 |  |  |  |
| Nc1cccc(S(=O)(=O)N2CCN(S(=O)(=O)c3ccc4c(c3)OCCO4)CC2)c1 | 1 to 100 | 1 to 100 | 1 to 100 | 101 to 500 |  |  |  |  |  |  |  |  |  |  |  |
| CCCCCn1ncc2c3sc(C)cc3n(C)c2c1=O | 101 to 500 | 101 to 500 | 101 to 500 | 101 to 500 |  |  |  |  |  |  |  |  |  |  |  |
| Nc1cccc(S(=O)(=O)N2CCCN(S(=O)(=O)c3ccc4c(c3)OCCO4)CC2)c1 [drawing 17] |  |  |  |  | A (a % activation at 1 μM of from 1 to 100) |  |  |  |  |  |  |  | B (a % activation at 1 μM of from 101 to 500) | B (a % activation at 1 μM of from 101 to 500) | B (a % activation at 1 μM of from 101 to 500) |
| O=S(=O)(c1ccc2c(c1)OCCO2)N1CCN(S(=O)(=O)c2c(F)cccc2F)CC1 | 101 to 500 | 101 to 500 | 1 to 100 | 1 to 100 |  |  |  |  |  |  |  |  |  |  |  |
| CSc1cc2c(s1)c1cnn(Cc3cccc(O)c3)c(=O)c1n2C | 101 to 500 | > 500 | 101 to 500 | 101 to 500 |  | < 100 | < 100 | < 100 | < 100 | < 100 | < 100 | < 100 |  |  |  |
| COc1cccc(Cn2ncc3c4sc([S+](C)[O-])cc4n(C)c3c2=O)c1 (centres unmarked) | 1 to 100 | 101 to 500 | 1 to 100 | 101 to 500 |  | < 100 | < 100 | < 100 | < 100 | < 100 | < 100 | < 100 |  |  |  |
| O=S(=O)(c1ccc2c(c1)OCCO2)N1CCCN(S(=O)(=O)c2c(F)cccc2F)CC1 | 101 to 500 | 101 to 500 | 101 to 500 | 101 to 500 |  |  |  |  |  |  |  |  |  |  |  |
